According to patent publication EP1105136B1, “METHOD FOR TREATING OCULAR NEOVASCULAR DISEASES” (Novartis AG, priority 1998, dated 2000):

Tests used:
[1] = test system: PDGF receptors; test: cellular autophosphorylation assay in transfected Chinese hamster ovary cells; assay type: cell-based; settings: Chinese hamster ovary cells transfected with RTK gene
Protocol: (§1) In vivo activity requires drugs to enter cells and therefore agents are tested in cellular autophosphorylation assays, using Chinese hamster ovary cells transfected with one of several RTK genes.

[2] = target: T1, c-Kit (Homo sapiens, UniProt P10721); test: as above; assay type: cell-based; settings: Chinese hamster ovary cells transfected with RTK gene
T1 construct: expressed in transfected cells; host or cells: Chinese hamster ovary cells
T1 sequence (P10721 26-976): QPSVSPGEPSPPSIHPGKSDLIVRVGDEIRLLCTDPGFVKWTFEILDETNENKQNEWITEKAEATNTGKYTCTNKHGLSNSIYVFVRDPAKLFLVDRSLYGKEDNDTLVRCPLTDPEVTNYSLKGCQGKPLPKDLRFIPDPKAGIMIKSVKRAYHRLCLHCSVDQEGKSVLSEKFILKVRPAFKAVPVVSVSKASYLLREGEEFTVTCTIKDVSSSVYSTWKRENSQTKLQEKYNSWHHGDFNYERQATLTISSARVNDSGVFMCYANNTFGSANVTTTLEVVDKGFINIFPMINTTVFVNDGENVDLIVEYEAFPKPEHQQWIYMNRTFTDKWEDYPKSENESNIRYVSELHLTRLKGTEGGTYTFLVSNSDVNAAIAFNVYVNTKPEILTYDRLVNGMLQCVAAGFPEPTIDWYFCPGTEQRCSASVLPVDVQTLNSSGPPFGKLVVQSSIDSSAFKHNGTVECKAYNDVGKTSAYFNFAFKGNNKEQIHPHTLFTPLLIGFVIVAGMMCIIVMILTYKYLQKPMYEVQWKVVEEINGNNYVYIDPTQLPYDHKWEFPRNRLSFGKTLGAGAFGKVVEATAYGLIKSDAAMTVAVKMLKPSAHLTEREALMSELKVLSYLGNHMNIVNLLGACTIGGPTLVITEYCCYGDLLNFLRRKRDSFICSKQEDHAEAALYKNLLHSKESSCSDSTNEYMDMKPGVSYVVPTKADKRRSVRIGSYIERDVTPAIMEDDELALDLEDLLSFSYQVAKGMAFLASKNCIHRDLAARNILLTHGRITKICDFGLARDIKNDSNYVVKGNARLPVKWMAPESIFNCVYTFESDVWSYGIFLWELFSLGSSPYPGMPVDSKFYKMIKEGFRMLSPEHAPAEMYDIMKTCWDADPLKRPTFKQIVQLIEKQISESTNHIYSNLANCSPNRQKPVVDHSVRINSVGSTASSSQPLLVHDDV
Protocol: as §1

[3] = test system: VEGF receptors; test: as above; assay type: cell-based; settings: Chinese hamster ovary cells transfected with RTK gene
Protocol: as §1

[4] = test system: retinal vascular development; test: retinal vascular development in neonatal mice; assay type: in vivo, C57/BL6J mice
Protocol: Litters of newborn C57/BL6J mice are divided into treatment and control groups which received daily subcutaneous injections of 10 mg/kg of drug or vehicle, respectively. At P7 or P10, mice are anesthetized with ether, and perfused with 1 ml of phosphate-buffered saline containing 50 mg/ml of fluorescein-labeled dextran (2x10^6 average mw, Sigma, St. Louis, MO).. The eyes are removed and fixed for 1 hour in 10% phosphate-buffered formalin. The cornea and lens are removed and the entire retina is carefully dissected from the eyecup, radially cut from the edge of the retina to the equator in all 4 quadrants, and flat-mounted in Aquamount. with photoreceptors facing upward.

[5] = target: T2, insulin receptor (Homo sapiens, UniProt P06213); test: cellular autophosphorylation assay in transfected Chinese hamster ovary cells; assay type: cell-based; settings: Chinese hamster ovary cells transfected with RTK gene
T2 construct: expressed in transfected cells; host or cells: Chinese hamster ovary cells
T2 sequence (P06213 28-1382, species assumed): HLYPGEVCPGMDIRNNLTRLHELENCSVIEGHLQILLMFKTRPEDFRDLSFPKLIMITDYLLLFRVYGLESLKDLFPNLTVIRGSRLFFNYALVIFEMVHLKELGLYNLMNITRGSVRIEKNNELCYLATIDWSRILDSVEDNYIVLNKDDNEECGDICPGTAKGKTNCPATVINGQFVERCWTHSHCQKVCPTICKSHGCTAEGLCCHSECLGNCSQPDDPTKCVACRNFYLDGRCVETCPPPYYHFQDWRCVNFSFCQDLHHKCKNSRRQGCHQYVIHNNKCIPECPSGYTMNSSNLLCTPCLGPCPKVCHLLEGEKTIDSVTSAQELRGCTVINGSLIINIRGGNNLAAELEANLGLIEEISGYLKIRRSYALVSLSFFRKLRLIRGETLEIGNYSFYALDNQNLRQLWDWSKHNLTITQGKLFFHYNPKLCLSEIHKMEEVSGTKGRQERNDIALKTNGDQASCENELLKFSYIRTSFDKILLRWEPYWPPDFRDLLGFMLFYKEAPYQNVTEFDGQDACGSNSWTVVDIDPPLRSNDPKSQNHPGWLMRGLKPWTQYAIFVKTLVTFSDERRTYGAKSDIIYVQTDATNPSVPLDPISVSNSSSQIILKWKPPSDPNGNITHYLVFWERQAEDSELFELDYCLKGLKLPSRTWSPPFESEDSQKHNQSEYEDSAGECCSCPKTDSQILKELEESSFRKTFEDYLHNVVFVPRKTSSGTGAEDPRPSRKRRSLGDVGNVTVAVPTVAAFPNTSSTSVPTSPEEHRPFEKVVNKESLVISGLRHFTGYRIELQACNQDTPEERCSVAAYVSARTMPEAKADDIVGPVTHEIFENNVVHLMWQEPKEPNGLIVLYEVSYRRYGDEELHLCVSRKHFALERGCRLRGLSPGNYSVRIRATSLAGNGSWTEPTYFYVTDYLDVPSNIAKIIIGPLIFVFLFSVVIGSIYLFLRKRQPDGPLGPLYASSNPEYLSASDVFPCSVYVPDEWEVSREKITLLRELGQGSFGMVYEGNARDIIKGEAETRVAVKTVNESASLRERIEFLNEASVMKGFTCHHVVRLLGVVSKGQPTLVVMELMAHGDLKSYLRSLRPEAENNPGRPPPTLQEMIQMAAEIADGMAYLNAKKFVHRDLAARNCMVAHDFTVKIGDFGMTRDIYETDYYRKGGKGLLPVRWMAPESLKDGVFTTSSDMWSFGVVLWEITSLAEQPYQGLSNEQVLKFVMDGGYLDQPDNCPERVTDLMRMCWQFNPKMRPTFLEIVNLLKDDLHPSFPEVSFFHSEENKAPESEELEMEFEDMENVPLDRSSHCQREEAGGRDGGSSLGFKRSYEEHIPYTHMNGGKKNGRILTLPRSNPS

[6] = test system: retinal neovascularization in mice with ischemic retinopathy; test: retinal neovascularization in mice with oxygen-induced ischemic retinopathy; assay type: in vivo, C57/BL6J mice
Protocol: Ischemic retinopathy is produced in C57/BL6J mice by the following method: • Seven-day-old mice and their mothers are placed in an airtight incubator and exposed to an atmosphere of 75 ± 3% oxygen for 5 days. Incubator temperature is maintained at 23 ± 2°C, and oxygen is measured every 8 hours with an oxygen analyzer. After 5 days, the mice are removed from the incubator, placed in room air, and drug treatment is begun. […] Vehicle (control) or vehicle containing various concentrations of drug (volume = 50 µl in neonates and 100 µl in adult mice) is placed in the stomach by gavage. After 5 days of treatment at P17, mice are sacrificed, eyes are rapidly removed and frozen in optimum cutting temperature embedding compound (OCT; Miles Diagnostics, Elkhart, IN) or fixed in 10% phosphate-buffered formalin and embedded in paraffin. Adult C57BL6J mice are also treated by gavage with drug or vehicle and after 5 days, they are sacrificed and their eyes are processed for frozen or paraffin sections.
Slides are rinsed with 0.05M Tris-buffered saline, pH 7.6 (TBS) and incubated 2 hours at room temperature with biotinylated lectin. […] Some slides are counterstained with hematoxyln and all are mounted with Cytoseal.
The entire eye is sampled by staining sections roughly 50-60 µm apart, which provided 13 sections per eye for analysis. […] The mean of the 13 measurements from each eye is used as a single experimental value.

[7] = test system: choroidal neovascularization; test: laser-induced choroidal neovascularization in mice; settings: 50 mg/kg/day by gavage, two weeks after laser
[8] = target: Flk-1 (Mus musculus, UniProt P35918); settings: mouse versus human VEGF receptor 2
Flk-1, sequence (P35918 832-1160 limits assumed): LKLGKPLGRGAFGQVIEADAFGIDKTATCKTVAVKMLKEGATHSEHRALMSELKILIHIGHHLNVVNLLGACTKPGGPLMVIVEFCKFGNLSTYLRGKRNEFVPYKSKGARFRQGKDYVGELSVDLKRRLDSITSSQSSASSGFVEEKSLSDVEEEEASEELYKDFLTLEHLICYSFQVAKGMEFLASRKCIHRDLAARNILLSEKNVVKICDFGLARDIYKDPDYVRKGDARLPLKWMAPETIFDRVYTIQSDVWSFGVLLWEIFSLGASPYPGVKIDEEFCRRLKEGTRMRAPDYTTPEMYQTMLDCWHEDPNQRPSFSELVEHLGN

[9] = test system: retinal vessels in adult mice; test: effect on retinal vessels in adult mice; assay type: in vivo, C57BL6J mice; settings: 50 mg/kg/day
Protocol: Vehicle (control) or vehicle containing various concentrations of drug (volume = 50 µl in neonates and 100 µl in adult mice) is placed in the stomach by gavage. […] Adult C57BL6J mice are also treated by gavage with drug or vehicle and after 5 days, they are sacrificed and their eyes are processed for frozen or paraffin sections. […] Slides are rinsed with 0.05M Tris-buffered saline, pH 7.6 (TBS) and incubated 2 hours at room temperature with biotinylated lectin. […] Some slides are counterstained with hematoxyln and all are mounted with Cytoseal. […] The mean of the 13 measurements from each eye is used as a single experimental value.

[10] = target: c-erbB2 (Homo sapiens, UniProt P04626); test: cellular autophosphorylation assay in transfected Chinese hamster ovary cells; assay type: cell-based; settings: Chinese hamster ovary cells transfected with RTK gene
c-erbB2, sequence (P04626 23-1255): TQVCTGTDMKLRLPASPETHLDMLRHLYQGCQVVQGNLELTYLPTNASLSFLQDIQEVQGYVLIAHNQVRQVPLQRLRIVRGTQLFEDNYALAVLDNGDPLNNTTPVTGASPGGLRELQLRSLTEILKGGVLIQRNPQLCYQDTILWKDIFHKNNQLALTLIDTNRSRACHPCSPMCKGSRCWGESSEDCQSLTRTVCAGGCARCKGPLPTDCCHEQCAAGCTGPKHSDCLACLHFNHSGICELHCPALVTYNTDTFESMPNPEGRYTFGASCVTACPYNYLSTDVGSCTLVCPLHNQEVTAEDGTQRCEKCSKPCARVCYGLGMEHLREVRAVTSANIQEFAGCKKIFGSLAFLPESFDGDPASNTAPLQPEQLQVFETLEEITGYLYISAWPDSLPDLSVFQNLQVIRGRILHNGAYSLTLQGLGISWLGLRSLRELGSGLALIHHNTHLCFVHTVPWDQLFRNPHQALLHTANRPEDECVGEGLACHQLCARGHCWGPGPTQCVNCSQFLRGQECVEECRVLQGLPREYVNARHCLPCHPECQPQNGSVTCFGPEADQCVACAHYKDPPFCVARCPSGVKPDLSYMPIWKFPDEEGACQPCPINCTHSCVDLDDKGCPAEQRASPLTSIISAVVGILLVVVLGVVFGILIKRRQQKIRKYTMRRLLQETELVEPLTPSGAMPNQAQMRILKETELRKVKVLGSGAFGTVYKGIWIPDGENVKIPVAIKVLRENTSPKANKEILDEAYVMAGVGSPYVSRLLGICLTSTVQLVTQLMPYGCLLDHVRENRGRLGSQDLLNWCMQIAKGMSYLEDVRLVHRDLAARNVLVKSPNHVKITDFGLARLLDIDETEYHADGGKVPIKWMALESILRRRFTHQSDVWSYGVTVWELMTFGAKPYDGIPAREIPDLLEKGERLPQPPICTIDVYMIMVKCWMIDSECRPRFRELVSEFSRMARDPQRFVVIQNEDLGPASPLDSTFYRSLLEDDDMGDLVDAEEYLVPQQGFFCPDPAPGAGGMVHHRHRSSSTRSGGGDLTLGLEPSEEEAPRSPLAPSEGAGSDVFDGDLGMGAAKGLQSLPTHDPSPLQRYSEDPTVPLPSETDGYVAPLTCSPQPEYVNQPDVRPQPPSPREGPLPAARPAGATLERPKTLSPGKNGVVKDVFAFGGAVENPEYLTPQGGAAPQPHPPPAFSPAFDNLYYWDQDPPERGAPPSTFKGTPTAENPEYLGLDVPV

[11] = P17 mice, 2.5 mg/kg twice a day
[12] = P17 mice, 25 mg/kg twice a day, gavage, 5 days

SMILES: Clc1ccc(Nc2nnc(Cc3ccncc3)c3ccccc23)cc1 [CGP 79787D]
- autophosphorylation [1]: inhibits
- autophosphorylation [2]: inhibits
- autophosphorylation [3]: inhibits
- extension of retinal vessels ([4]; P7, injections of 10 mg/kg starting on P0): only extended about half way to the periphery
- extension of the superficial capillary bed ([4]; P10, injections of 10 mg/kg starting on P0): has not yet reached the edge of the retina
- autophosphorylation [5]: poor inhibitor
- staining in the inner nuclear layer ([6]; P17 mice, 0.25 mg/kg): no identifiable decrease
- total endothelial staining in the retina ([6]; P17 mice, 0.25 mg/kg): decreased total endothelial staining in the retina that is not statistically significant
- endothelial cell staining in the retina [6, 11]: significantly less than vehicle-treated controls
- endothelial staining in the inner nuclear layer [6, 11]: some decrease
- endothelial cell staining in the inner nuclear layer and outer plexiform layer (deep capillary bed) ([6]; P17 mice, 25 mg/kg twice a day): striking absence
- endothelial cell staining within the retina [6, 12]: dramatic decrease
- neovascularization (endothelial cells on the surface of the retina) [6, 12]: complete inhibition
- choroidal neovascularization at the site of each laser-induced rupture of Bruch's membrane [7]: very little if any
- overlying retinal vessels [7]: appeared normal
- integrated area of lectin staining per lesion ([7]; n = 5): 0.01124±0.001483 mm^2
- less potent as an inhibitor of mouse VEGF receptor 2 compared to the human receptor [8]: about 10 fold
- total area of endothelial staining in the retina or the appearance of retinal vessels compared to vehicle-treated mice [9]: no difference
- autophosphorylation [10]: poor inhibitor

SMILES: O=c1c(-c2ccc(O)cc2)coc2cc(O)cc(O)c12 [Genistein, 4', 5,7-trihydroxyisoflavone, reference compound]
- endothelial staining in the retina ([6]; dose comparable to the highest dose of CGP 79787D): no significant decrease
